The text below walks through data of patent US10919896B2, “Preparation and uses of pyrimidinone derivatives” (Cancer Research Technology Limited, priority 2016, dated 2021).

Assay [1] concerns Cdc7 (pS40MCM2 levels in HCT116 cells). The assay can be described thus: Cdc7 Cell Pharmacodynamics Assay Method 2B: pS40MCM2 levels in HCT116 cells, 18 hours. The settings on record: Homo sapiens, HCT-116, read-out: Biomarker Method 2B (pEC50) (converted). Format: cell-based. The text has this:
This protocol describes a method to investigate the inhibition of Cdc7 activity by measuring pS40MCM2 levels in cells, after treatment with compounds.
• HCT116 cells (ATCC, #CCL-247) • McCoys 5A with L-glutamine (Cellgro, #10-050-CV) • 10% FCS (Cellgro, #35-010-CV) • D-PBS without CaCl2 and MgCl2 (Cellgro, #21-031-CV) • Trypsin/EDTA (Cellgro, #25-052-CL) • BSA (Calbiochem, 126593) • Cell Extraction Buffer (Invitrogen FNN0011) • Protease inhibitor cocktail (Sigma P-2714) • PMSF 0.3M stock in DMSO (Sigma P7626) • Antibody-rabbit pMCM2 Ser40 (Abcam, AB133243) • Antibody-goat MCM2 (Bethyl #A300-122A) • Antibody-goat Anti Rabbit IgG HRP (Thermo, 31462) • SuperSignal ELISA Pico Chemiluminescent Substrate (Perbio Science UK Ltd 37069) • 10×PBS (Growcells, MRGF-6236) • Triton X100 (Sigma, P-T8787) • DMSO (Fisher, D128-1) • 2-Propanol (J. T. Baker, 9095-03) Method • Seed 1×10^6 HCT116 cells into each of two 175 cm^2 flask containing 30 mL Cell Growth Media and incubate at 37° C., 5% CO2 for 3 days. • Harvest the cells from one T175 cm^2 flask and count. • Dilute with Cell Growth Media to a cell density of 2×10^5. Dispense 100 μL to each well (20,000 HCT116 cells/well) of TC treated 96-well plate(s). • Allow cells to settle overnight in incubator set at 37° C. and 5% CO2. • Cell treatment: Transfer 0.25 μL/well from the compound plate to the wells of the cell plate(s). This is a 1:400 dilution of compound in the assay. • Once all cells are treated place the cells back to the incubator and incubate for either 6 hours (Method 2A) or 18 hours (Method 2B). • Dilute the capture antibody (total MCM2#A300-122A) 1 in 250 in the required volume of PBS (5 mL per assay plate, plus 5 mL for dead volume) and add 50 μL to each well of a Hybond plate except wells A12 & B12. Seal the plate and incubate at room temperature for a minimum of 2 hours. • Defrost aliquot of Invitrogen Cell Extraction Buffer (FNN0011) on ice and supplement with appropriate volume of both Sigma protease inhibitor cocktail (P-2714) and PMSF (final conc 1 mM from a 1 M stock in DMSO). • After the 6 hour or 18 hour cell treatment time, tap out the media from the assay plates and place them in the −70° C. freezer for at least 5 minutes. • Flick out the remaining liquid in the previously prepared capture Ab plate(s) and add 200 μL 2% BSA per well. Incubate for 1 hour at room temperature. • Remove plates from freezer and add 20 μL of ice cold complete lysis buffer. Incubate cells for 30 minutes at 4° C. • Add 30 μL per well 2% BSA • At the end of the 1 hour incubation, wash the Capture/ELISA plate(s) with Wash Buffer on the BioTek plate washer. • Transfer 40 μL per well of the lysis plate(s) to the same wells in the Capture/ELISA plate. Incubate cells overnight at 4° C. • At the end of the overnight incubation, wash the ELISA plate(s) with Wash Buffer on BioTek plate washer. • Prepare Detection Antibody Buffer and dispense 50 μL to all wells of ELISA plate(s) except wells G1 & H1. Cover plate and incubate at room temperature for 2 hours with gentle shaking. • At the end of the 2 hour incubation, wash the ELISA plate(s) with Wash Buffer on the BioTek plate washer. • Prepare the Conjugated Antibody Buffer and dispense 50 μL to all wells of ELISA plate(s). • Cover the plate and incubate at room temperature for 1 hour with gentle shaking. • At the end of the 1 hour incubation, wash the ELISA plate(s) with Wash Buffer on the BioTek plate washer. • Prepare Substrate Buffer and dispense 50 μL to all wells of ELISA plate(s). • Incubate for a minimum of 10 minutes and read plates on the EnVision 2100 Multilabel Reader (Mirror: Luminescence (404) & Luminescence 700 (212); Measurement Height: 6.5 mm; Measurement Time: 0.2 s). Method 3

A further assay concerns the target Cdc7/Dbf4 (Homo sapiens, UniProt O00311). Nature of the assay: Cdc7 Biochemical Assay Method 3: Cdc7/Dbf4 Enzyme TR-FRET Assay measuring pS40MCM2. Conditions: 1 μM ATP, read-out: Biochemical Method 3 (pIC50) (converted). The procedure, abridged:
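2.5 nM Cdc7/Dbf4 incubated with 100 nM biotinylated MCM2-derived peptide and 1 μM ATP, 120 minutes at 25° C. Phospho-S40 detected by TR-FRET using anti-pS40 Mcm2 antibody, terbium anti-rabbit secondary and streptavidin-Alexa Fluor488.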
A general note: In TR-FRET formats the signal depends on donor and acceptor labels being close together.

Chain of Cdc7/Dbf4 (O00311 whole entry): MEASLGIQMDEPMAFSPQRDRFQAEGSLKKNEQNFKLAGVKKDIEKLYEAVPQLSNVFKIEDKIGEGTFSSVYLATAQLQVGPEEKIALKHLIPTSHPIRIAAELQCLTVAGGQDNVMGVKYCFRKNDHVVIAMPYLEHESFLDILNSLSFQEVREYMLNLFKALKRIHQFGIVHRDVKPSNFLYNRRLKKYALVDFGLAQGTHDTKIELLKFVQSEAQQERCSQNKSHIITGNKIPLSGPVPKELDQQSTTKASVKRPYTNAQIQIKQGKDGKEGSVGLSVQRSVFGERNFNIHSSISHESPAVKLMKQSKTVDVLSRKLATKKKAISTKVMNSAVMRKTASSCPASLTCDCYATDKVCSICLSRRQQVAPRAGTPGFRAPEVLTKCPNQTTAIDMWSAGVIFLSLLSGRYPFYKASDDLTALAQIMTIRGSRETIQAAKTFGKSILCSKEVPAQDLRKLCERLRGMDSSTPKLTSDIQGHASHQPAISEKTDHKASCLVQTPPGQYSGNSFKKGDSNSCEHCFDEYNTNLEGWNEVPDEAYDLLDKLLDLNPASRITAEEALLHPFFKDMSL
Chain of Cdc7/Dbf4 (Q9UBU7 whole entry partner): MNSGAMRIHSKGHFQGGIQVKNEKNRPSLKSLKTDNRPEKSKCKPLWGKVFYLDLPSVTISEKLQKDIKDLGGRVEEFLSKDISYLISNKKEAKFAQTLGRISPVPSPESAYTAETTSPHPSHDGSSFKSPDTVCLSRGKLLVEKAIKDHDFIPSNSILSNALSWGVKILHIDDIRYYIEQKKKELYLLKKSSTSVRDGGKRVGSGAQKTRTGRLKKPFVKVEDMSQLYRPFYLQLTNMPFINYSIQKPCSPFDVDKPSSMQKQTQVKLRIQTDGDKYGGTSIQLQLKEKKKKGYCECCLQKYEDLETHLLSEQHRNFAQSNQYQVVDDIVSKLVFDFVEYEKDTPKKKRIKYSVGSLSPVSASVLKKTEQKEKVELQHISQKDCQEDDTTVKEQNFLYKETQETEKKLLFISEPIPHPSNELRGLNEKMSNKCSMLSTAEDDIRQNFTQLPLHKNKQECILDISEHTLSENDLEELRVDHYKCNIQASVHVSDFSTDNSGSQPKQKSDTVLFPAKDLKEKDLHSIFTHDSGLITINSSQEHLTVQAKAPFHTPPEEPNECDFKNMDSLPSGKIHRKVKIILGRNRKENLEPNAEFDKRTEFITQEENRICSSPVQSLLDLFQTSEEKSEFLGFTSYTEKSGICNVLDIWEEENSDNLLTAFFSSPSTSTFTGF

As for `C[C@@H]1CN(c2nc(-c3ccnc(F)c3)[nH]c(=O)c2Cl)C[C@H](C)O1` [Compound 201], in assay [1], the EC50 is 813 nM. On Cdc7/Dbf4, the IC50 was 4.17 nM.
The corresponding values for `O=C1COCCN(c2nc(-c3ccnc(F)c3)[nH]c(=O)c2Cl)C1` [Compound 208] are 64.6 nM and 0.49 nM.
Regarding `O=c1[nH]c(-c2ccnc(F)c2)nc(N2CCC(N3CCOCC3)CC2)c1Cl` [Compound 244], the EC50 in assay [1] was 398 nM. In addition, on Cdc7/Dbf4, the IC50 is 4.37 nM.
On the same counts, the results for `O=c1[nH]c(-c2ccnc(F)c2)nc(N2CCCC3(CCNC3)C2)c1Cl` (centres unmarked) [Compound 258] are 562 nM and 0.832 nM.
On the same counts, the results for `O=c1[nH]c(-c2ccnc(F)c2)nc(N2CCCC23CCCNC3)c1Cl` (centres unmarked) [Compound 260] are 72.4 nM and 1.41 nM.
On the same counts, the results for `O=c1[nH]c(-c2ccnc(F)c2)nc(N2CC[C@@H]3CNC[C@@H]32)c1Cl` [Compound 261] are 537 nM and 0.813 nM.
For `CN[C@H]1CCN(c2nc(-c3ccnc(F)c3)[nH]c(=O)c2Cl)C1` [Compound 271], in assay [1], the EC50 was 295 nM. At Cdc7/Dbf4, the IC50 was 1.48 nM.
On the same counts, the results for `CN(C)[C@H]1CCN(c2nc(-c3ccnc(F)c3)[nH]c(=O)c2Cl)C1` [Compound 272] are 501 nM and 5.5 nM.
The corresponding values for `C[C@]1(N)CCN(c2nc(-c3ccnc(F)c3)[nH]c(=O)c2Cl)C1` [Compound 273] are 427 nM and 0.646 nM.
The corresponding values for `O=c1[nH]c(-c2ccnc(F)c2)nc(N2CCCC3NCCC32)c1Cl` (centres unmarked) [Compound 275] are 2090 nM and 0.794 nM.
Regarding `O=c1[nH]c(-c2ccnc(F)c2)nc(N2CCCCC2)c1Cl` [Compound 277], the EC50 in assay [1] was 282 nM. For the same compound, on Cdc7/Dbf4, the IC50 was 1.07 nM.
Turning to `C[C@@H]1CCCCN1c1nc(-c2ccnc(F)c2)[nH]c(=O)c1Cl` [Compound 281], the EC50 in assay [1] was 457 nM. In addition, the IC50 at Cdc7/Dbf4 is 1.05 nM.
The corresponding values for `CO[C@@H]1CCCN(c2nc(-c3ccnc(F)c3)[nH]c(=O)c2Cl)C1` [Compound 282] are 234 nM and 2.63 nM.
On the same counts, the results for `O=c1[nH]c(-c2ccnc(F)c2)nc(N2CCC3(COC3)C2)c1Cl` [Compound 284] are 389 nM and 2.09 nM.
On the same counts, the results for `O=c1[nH]c(-c2ccnc(F)c2)nc(N2CCN3CCC2CC3)c1Cl` [Compound 293] are 29.5 nM and 0.363 nM.
For the compound `O=c1[nH]c(-c2ccnc(F)c2)nc(N2CCNC(C(F)(F)F)CC2)c1Cl` (centres unmarked) [Compound 296], in assay [1], the EC50 was 1020 nM. At Cdc7/Dbf4, the IC50 is 7.59 nM.
Consider `CC1(C)CN(c2nc(-c3ccnc(F)c3)[nH]c(=O)c2Cl)CCN1` [Compound 297], for which the EC50 in assay [1] is 912 nM. Moreover, the IC50 on Cdc7/Dbf4 was 3.24 nM.
Regarding `CN1CCCN(c2nc(-c3ccnc(F)c3)[nH]c(=O)c2Cl)CC1` [Compound 298], in assay [1], the EC50 was 331 nM. In addition, the IC50 on Cdc7/Dbf4 was 4.07 nM.
As to `CC1(C)CN(c2nc(-c3ccnc(F)c3)[nH]c(=O)c2Cl)CCO1` [Compound 300], the EC50 in assay [1] was 115 nM. Further, the IC50 on Cdc7/Dbf4 is 3.02 nM.
On to `CC1(C)CN(c2nc(-c3ccnc(F)c3)[nH]c(=O)c2Cl)CCCO1` [Compound 301], for which, in assay [1], the EC50 was 1910 nM. Also, at Cdc7/Dbf4, the IC50 was 10.5 nM.
In the case of `CC1CCN(c2nc(-c3ccnc(F)c3)[nH]c(=O)c2Cl)CCN1` (centres unmarked) [Compound 303], the EC50 in assay [1] was 126 nM. The IC50 on Cdc7/Dbf4 was 2.09 nM.
On the same counts, the results for `CC1(F)CNCCN(c2nc(-c3ccnc(F)c3)[nH]c(=O)c2Cl)C1` (centres unmarked) [Compound 304] are 214 nM and 1.38 nM.
On the same counts, the results for `N#CC[C@H]1CN(c2nc(-c3ccnc(F)c3)[nH]c(=O)c2Cl)CCN1` [Compound 306] are 174 nM and 1.29 nM.
On the same counts, the results for `CC[C@@H]1COCCN1c1nc(-c2ccnc(F)c2)[nH]c(=O)c1Cl` [Compound 335] are 457 nM and 1.1 nM.
As for `C[C@@H]1CN(c2nc(-c3ccnc(F)c3)[nH]c(=O)c2Cl)CCO1` [Compound 337], the EC50 in assay [1] was 372 nM. Besides, the IC50 at Cdc7/Dbf4 was 1.12 nM.
On the same counts, the results for `O=c1[nH]c(-c2ccnc(F)c2)nc(N2CCCOCC2)c1Cl` [Compound 338] are 178 nM and 0.708 nM.
The corresponding values for `CC1CN(c2nc(-c3ccnc(F)c3)[nH]c(=O)c2Cl)C(C)CO1` (centres unmarked) [Compound 340] are 174 nM and 2.51 nM.
The corresponding values for `N#C[C@@H]1CNCCN1c1nc(-c2ccnc(F)c2)[nH]c(=O)c1Cl` [Compound 345] are 1740 nM and 1.29 nM.
In the case of `O=c1[nH]c(-c2ccnc(F)c2)nc(N2CCN3CC(F)(F)C[C@H]3C2)c1Cl` [Compound 347], the EC50 in assay [1] was 316 nM. The IC50 on Cdc7/Dbf4 is 3.63 nM.
As for `O=c1[nH]c(-c2ccnc(F)c2)nc(N2CCN3CCC[C@H]3C2)c1Cl` [Compound 348], in assay [1], the EC50 is 257 nM. Further, the IC50 at Cdc7/Dbf4 was 1.95 nM.
On the same counts, the results for `O=c1[nH]c(-c2ccnc(F)c2)nc(N2CCN(CC(F)F)CC2)c1Cl` [Compound 350] are 155 nM and 2.19 nM.
On the same counts, the results for `CC1CCNCCN1c1nc(-c2ccnc(F)c2)[nH]c(=O)c1Cl` (centres unmarked) [Compound 351] are 138 nM and 1.35 nM.
For `C[C@@H]1CNCCCN1c1nc(-c2ccnc(F)c2)[nH]c(=O)c1Cl` [Compound 352], in assay [1], the EC50 was 437 nM. For the same compound, the IC50 at Cdc7/Dbf4 is 3.63 nM.
Consider `CC1COCCCN1c1nc(-c2ccnc(F)c2)[nH]c(=O)c1Cl` (centres unmarked) [Compound 355], for which the EC50 in assay [1] was 288 nM. Further, the IC50 at Cdc7/Dbf4 is 2.69 nM.
For the compound `C[C@@H]1CN(c2nc(-c3ccnc(F)c3)[nH]c(=O)c2Cl)[C@H](C)CO1` [Compound 357], the EC50 in assay [1] is 200 nM. Besides, at Cdc7/Dbf4, the IC50 was 2.09 nM.
The corresponding values for `CC1OCCN(c2nc(-c3ccnc(F)c3)[nH]c(=O)c2Cl)C1C` (centres unmarked) [Compound 359] are 27.5 nM and 2 nM.
On the same counts, the results for `O=c1[nH]c(-c2ccncc2)nc(N2CC(F)(F)OC(F)(F)C2)c1Cl` [Compound 413, 5-chloro-2-(4-pyridyl)-4-(2,2,6,6-tetrafluoromorpholin-4-yl)-1H-pyrimidin-6-one] are 309 nM and 1.38 nM.
